According to patent US20260335274A1, “COMPOSITIONS AND METHODS OF MINIMIZING LONG COVID” (priority 2022, published 2026):

How the values were obtained:
[1] = test system: OC43 human coronavirus; test: Post-infection test, MRC-5 cells, TCID50; assay type: cell-based, human coronavirus OC43 (MRC-5 human cells as host); conditions: 10 min exposure; for inhibition at 50 µM: read-out: titer reduction, post-infection
Method: Then, 100 μl of either EC16 formulations or Remdesivir solutions of various concentrations were applied onto the cells for 10 min before being replaced by serum-free EMEM. The TCID50 values were determined after incubation for 4-7 days.

[2] = test system: OC43 human coronavirus; test: Pre-infection test, MRC-5 cells, TCID50; assay type: cell-based, human coronavirus OC43 (MRC-5 human cells as host); conditions: MRC5, 10 min; 50 μM EC16m, 10 min incubation before virus; read-out: reduction in viral infectivity, pre-infection
Method: EC16m nasal formulations were incubated with MRC-5 cells in 96 well plates for 10 min, and then removed. A series dilution of OC43 in serum-free EMEM was added to the cells and incubated for 1 h. The viral dilutions were then replaced with serum-free EMEM, and TCID50 infection rate was determined after 4-7 days of incubation.

[3] = Cytotoxicity of F18m in normal saline, MTT assay; assay type: cell-based; conditions: human, hnepc; EC16m in saline formulation, 60 min exposure; read-out: concentration not toxic to HNEpC
Method: The F18m glycerol stock was diluted 10× with normal saline to 1.4 mM of EC16m. A series dilution of this nanoformulation in Airway Growth Medium was applied to a monolayer of Human […] Primary Epithelial Cells (HNPEC, PromoCell) and incubated for 1 h before medium change and overnight incubation, followed by straining with an MTT assay.

[4] = test system: OC43 human coronavirus; test: Direct contact (contact inhibition) antiviral test, TCID50; conditions: Betacoronavirus 1, OC43, MRC5, in Homo sapiens, 0.5 h, read-out: reduction of OC43 infectivity
[5] = test system: SARS-CoV-2; conditions: one-hour incubation; cited from earlier work
[6] = in vivo, cited from earlier work

Structure (SMILES) | inhibition at 50 µM ([1]; MRC5, 10 min, 50 μM) [%] | log reduction at 50 µM ([1]; MRC5, 10 min, 50 μM, n=4, read-out: log10 titer reduction, post-infection) | inhibition at 50 µM [2] [%] | MNTC at 1 h [3] [µM] | inhibition at 50 µM [4] [%] | inhibition of viral replication, post-infection ([1]; 12.5 μM EC16m) [%] | inhibition at 12.5 µM ([1]; MRC5, 10 min, 12.5 μM EC16m, read-out: inhibition of viral replication, post-infection) [%] | EC90 [5] [µM] | bioavailability [6] | Cmax ([6]; read-out: serum maximum concentration) [nM]
CCC(CC)COC(=O)[C@H](C)N[P@](=O)(OC[C@H]1O[C@@](C#N)(c2ccc3c(N)ncnn23)[C@H](O)[C@@H]1O)Oc1ccccc1 [remdesivir, reference compound] | 99.8 | 2.69 ± 0.24 | – | – | – | – | – | – | – | –
CCCCCCCCCCCCCCCC(=O)Oc1c(O)cc(C2Oc3cc(O)cc(O)c3CC2OC(=O)c2cc(O)c(O)c(O)c2)cc1O (centres unmarked) [EC16m, Epigallocatechin-3-Gallate-mono-palmitate] | 99.8 | – | 98.5 | < 280 | 99.9 | 99 | > 99 | – | – | –
O=C(O[C@@H]1Cc2c(O)cc(O)cc2O[C@@H]1c1cc(O)c(O)c(O)c1)c1cc(O)c(O)c(O)c1 [EGCG, epigallocatechin-3-gallate] | – | – | – | – | – | – | – | 69 | very low | 570
